# From patent US12539292B2, “BRM targeting compounds and associated methods of use” (Arvinas Operations, Inc., priority 2018, dated 2026)
# Read-outs that look alike come from different tables or passages of the source.
# Target: T1, BRM (Homo sapiens, UniProt P51531)
# T1 construct: In-Cell Western Screen of BRM Degradation in SW1573 Cells; endogenous in cells; host or cells: SW1573
# Test: In-cell Western screen of BRM degradation in SW1573 cells (Dmax and DC50)
# Format: cell-based
# Conditions: BRM degradation
# Summary of the method: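 Adherent SW1573 cultures exposed to test compounds for 18-20 h were processed for in-cell Western after PFA fixation and detergent permeabilization. BRM degradation was reported as Dmax and DC50.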
# [1] = SW1573 cells, tested at the top concentration of between 0.3 and 10 μM, read-out: Dmax (%) (% degraded)
# [2] = SW1573 cells, read-out: Dmax (% degraded)
# [3] = SW1573 cells, when tested at the top concentration of between 0.3 and 10 μM, read-out: Dmax (%) (% degraded)
# T1 sequence (P51531 whole entry): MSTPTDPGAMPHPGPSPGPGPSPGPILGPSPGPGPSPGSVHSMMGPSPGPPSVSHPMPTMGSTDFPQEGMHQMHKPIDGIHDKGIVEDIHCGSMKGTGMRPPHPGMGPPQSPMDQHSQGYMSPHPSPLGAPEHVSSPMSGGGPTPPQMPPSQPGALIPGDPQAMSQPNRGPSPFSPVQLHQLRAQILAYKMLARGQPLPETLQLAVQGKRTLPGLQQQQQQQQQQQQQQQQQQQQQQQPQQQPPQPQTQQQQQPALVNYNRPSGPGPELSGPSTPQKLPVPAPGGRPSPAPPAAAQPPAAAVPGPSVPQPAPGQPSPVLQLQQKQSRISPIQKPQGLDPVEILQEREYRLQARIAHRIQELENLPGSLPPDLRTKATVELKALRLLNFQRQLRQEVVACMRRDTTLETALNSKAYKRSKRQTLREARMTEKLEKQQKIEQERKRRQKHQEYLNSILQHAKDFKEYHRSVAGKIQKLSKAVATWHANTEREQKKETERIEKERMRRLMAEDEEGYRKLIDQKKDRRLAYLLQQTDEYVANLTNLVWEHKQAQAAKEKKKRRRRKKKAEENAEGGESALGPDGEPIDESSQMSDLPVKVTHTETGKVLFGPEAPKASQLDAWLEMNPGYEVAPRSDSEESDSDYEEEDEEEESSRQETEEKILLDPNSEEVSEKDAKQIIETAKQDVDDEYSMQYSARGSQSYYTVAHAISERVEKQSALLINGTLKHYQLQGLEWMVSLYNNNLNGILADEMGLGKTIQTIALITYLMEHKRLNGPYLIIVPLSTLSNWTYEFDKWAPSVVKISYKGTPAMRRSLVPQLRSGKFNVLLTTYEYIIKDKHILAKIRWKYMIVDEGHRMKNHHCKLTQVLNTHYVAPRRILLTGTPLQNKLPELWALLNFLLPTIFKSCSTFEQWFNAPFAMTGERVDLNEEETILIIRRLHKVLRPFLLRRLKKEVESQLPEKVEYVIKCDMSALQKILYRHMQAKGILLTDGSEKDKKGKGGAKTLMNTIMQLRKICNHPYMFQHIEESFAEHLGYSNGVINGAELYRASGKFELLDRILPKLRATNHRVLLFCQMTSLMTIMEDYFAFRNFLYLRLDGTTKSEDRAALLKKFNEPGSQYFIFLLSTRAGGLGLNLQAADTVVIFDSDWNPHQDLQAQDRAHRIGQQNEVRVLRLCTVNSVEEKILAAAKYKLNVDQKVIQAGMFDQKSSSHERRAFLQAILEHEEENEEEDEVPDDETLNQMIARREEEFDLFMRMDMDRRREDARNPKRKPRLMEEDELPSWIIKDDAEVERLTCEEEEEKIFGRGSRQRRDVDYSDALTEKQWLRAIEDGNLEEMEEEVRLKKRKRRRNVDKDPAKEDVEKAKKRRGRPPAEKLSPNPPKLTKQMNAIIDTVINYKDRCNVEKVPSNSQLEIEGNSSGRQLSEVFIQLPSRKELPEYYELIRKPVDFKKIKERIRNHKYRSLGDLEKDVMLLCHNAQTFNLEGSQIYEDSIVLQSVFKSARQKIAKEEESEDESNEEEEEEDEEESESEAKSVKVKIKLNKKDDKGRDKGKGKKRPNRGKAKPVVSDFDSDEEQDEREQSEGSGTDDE
SMILES,"DC50 (SW1573 cells, read-out: DC50) [nM]",Dmax [1] [%],Dmax [2] [%],DC50 (read-out: BRM DC50) [nM],Dmax [3] [%]
"Cc1ncsc1-c1ccc([C@H](C)NC(=O)[C@@H]2C[C@@H](O)CN2C(=O)[C@@H](c2cc(OCCN3CCC(O[C@H]4C[C@H](OCCn5cc(-c6cc(-c7ccccc7O)nnc6N)cn5)C4)CC3)no2)C(C)C)cc1 [compound 189, (2S,4R)-1-((R)-2-(3-(2-(4-((1r,3R)-3-(2-(4-(3-amino-6-(2-hydroxyphenyl)pyridazin-4-yl)-1H-pyrazol-1-yl)ethoxy)cyclobutoxy)piperidin-1-yl)ethoxy)isoxazol-5-yl)-3-methylbutanoyl)-4-hydroxy-N-((S)-1-(4-(4-methylthiazol-5-yl)phenyl)ethyl)pyrrolidine-2-carboxamide]",< 2.5,> 75,,,
"Cc1ncsc1-c1ccc([C@H](C)NC(=O)[C@@H]2C[C@@H](O)CN2C(=O)[C@@H](c2cc(N3CCC(CN4CCC(O[C@H]5C[C@H](C#Cc6cc(N7C8CCC7CN(c7cc(-c9ccccc9O)nnc7N)C8)ccn6)C5)CC4)CC3)no2)C(C)C)cc1 [compound 699, (2S,4R)-1-((2R)-2-(3-(4-((4-((1r,3r)-3-((4-(3-(3-amino-6-(2-hydroxyphenyl)pyridazin-4-yl)-3,8-diazabicyclo[3.2.1]octan-8-yl)pyridin-2-yl)ethynyl)cyclobutoxy)piperidin-1-yl)methyl)piperidin-1-yl)isoxazol-5-yl)-3-methylbutanoyl)-4-hydroxy-N-((S)-1-(4-(4-methylthiazol-5-yl)phenyl)ethyl)pyrrolidine-2-carboxamide]",< 2.5,,> 75,,
Cc1ncsc1-c1ccc([C@H](C)NC(=O)[C@@H]2C[C@@H](O)CN2C(=O)[C@@H](c2cc(OCCN3CCC(O[C@H]4C[C@H](Oc5cc(N6C7CCC6CN(c6ccnc8nc(-c9ccccc9O)cn68)C7)ccn5)C4)CC3)no2)C(C)C)cc1 [compound 515],,,,> 30,
"Cc1ncsc1-c1ccc([C@H](C)NC(=O)[C@@H]2C[C@@H](O)CN2C(=O)[C@@H](c2onc(OCCN3CCC(O[C@H]4C[C@H](Oc5cc(N6C7CCC6CN(c6cc(-c8ccccc8O)nnc6N)C7)ccn5)C4)CC3)c2F)C(C)C)cn1 [compound 270, (2S,4R)-1-((2R)-2-(3-(2-(4-((1r,3R)-3-((4-(3-(3-amino-6-(2-hydroxyphenyl)pyridazin-4-yl)-3,8-diazabicyclo[3.2.1]octan-8-yl)pyridin-2-yl)oxy)cyclobutoxy)piperidin-1-yl)ethoxy)-4-fluoroisoxazol-5-yl)-3-methylbutanoyl)-4-hydroxy-N-((S)-1-(6-(4-methylthiazol-5-yl)pyridin-3-yl)ethyl)pyrrolidine-2-carboxamide]",< 2.5,> 75,,,
"Cc1ncsc1-c1ccc([C@H](C)NC(=O)[C@@H]2C[C@@H](O)CN2C(=O)[C@@H](c2cc(OCC#Cc3ccc(O[C@H]4C[C@H](Oc5cc(N6C7CCC6CN(c6cc(-c8ccccc8O)nnc6N)C7)ccn5)C4)cn3)no2)C(C)C)cc1 [compound 70, (2S,4R)-1-((2R)-2-(3-((3-(5-((1r,3R)-3-((4-(3-(3-amino-6-(2-hydroxyphenyl)pyridazin-4-yl)-3,8-diazabicyclo[3.2.1]octan-8-yl)pyridin-2-yl)oxy)cyclobutoxy)pyridin-2-yl)prop-2-yn-1-yl)oxy)isoxazol-5-yl)-3-methylbutanoyl)-4-hydroxy-N-((S)-1-(4-(4-methylthiazol-5-yl)phenyl)ethyl)pyrrolidine-2-carboxamide]",< 2.5,,,,> 75
"Cc1ncsc1-c1ccc(CNC(=O)[C@@H]2C[C@@H](O)CN2C(=O)[C@@H](NC(=O)COCCOCCOCCOCCOCCOCCOc2cc(N3C4CCC3CN(c3cc(-c5ccccc5O)nnc3N)C4)ccn2)C(C)(C)C)cc1 [compound 8, (2S,4R)-1-((2S)-23-((4-(3-(3-amino-6-(2-hydroxyphenyl)pyridazin-4-yl)-3,8-diazabicyclo[3.2.1]octan-8-yl)pyridin-2-yl)oxy)-2-(tert-butyl)-4-oxo-6,9,12,15,18,21-hexaoxa-3-azatricosanoyl)-4-hydroxy-N-(4-(4-methylthiazol-5-yl)benzyl)pyrrolidine-2-carboxamide]",10 to 30,,,,> 75
"Cc1ncsc1-c1ccc([C@H](C)NC(=O)[C@@H]2C[C@@H](O)CN2C(=O)[C@H](c2cc(N3CCC4(CC3)CC(CN3CCC(O[C@H]5C[C@H](Oc6cc(N7C8CCC7CN(c7cc(-c9ccccc9O)nnc7N)C8)ccn6)C5)CC3)C4)no2)C(C)C)cc1 [compound 649, (2S,4R)-1-((2S)-2-(3-(2-((4-((1r,3r)-3-((4-(3-(3-amino-6-(2-hydroxyphenyl)pyridazin-4-yl)-3,8-diazabicyclo[3.2.1]octan-8-yl)pyridin-2-yl)oxy)cyclobutoxy)piperidin-1-yl)methyl)-7-azaspiro[3.5]nonan-7-yl)isoxazol-5-yl)-3-methylbutanoyl)-4-hydroxy-N-((S)-1-(4-(4-methylthiazol-5-yl)phenyl)ethyl)pyrrolidine-2-carboxamide]",> 30,,,,
"Cc1ncsc1-c1ccc([C@H](CN)NC(=O)[C@@H]2C[C@@H](O)CN2C(=O)[C@@H](c2cc(OCCN3CCN(CCOc4cc(N5C6CCC5CN(c5cc(-c7ccccc7O)nnc5N)C6)ccn4)CC3)no2)C(C)C)cc1 [compound 103, (2S,4R)-N-((R)-2-amino-1-(4-(4-methylthiazol-5-yl)phenyl)ethyl)-1-((2R)-2-(3-(2-(4-(2-((4-(3-(3-amino-6-(2-hydroxyphenyl)pyridazin-4-yl)-3,8-diazabicyclo[3.2.1]octan-8-yl)pyridin-2-yl)oxy)ethyl)piperazin-1-yl)ethoxy)isoxazol-5-yl)-3-methylbutanoyl)-4-hydroxypyrrolidine-2-carboxamide]",2.5 to 10,,,,> 75
"Cc1ncsc1-c1ccc([C@H](C)NC(=O)[C@@H]2C[C@@H](O)CN2C(=O)[C@H](c2cc(N3CCN(CC#Cc4ncc(O[C@H]5C[C@H](Oc6cc(N7C8CCC7CN(c7cc(-c9ccccc9O)nnc7N)C8)ccn6)C5)cn4)CC3)no2)C(C)C)cc1 [compound 521, (2S,4R)-1-((2S)-2-(3-(4-(3-(5-((1r,3r)-3-((4-(3-(3-amino-6-(2-hydroxyphenyl)pyridazin-4-yl)-3,8-diazabicyclo[3.2.1]octan-8-yl)pyridin-2-yl)oxy)cyclobutoxy)pyrimidin-2-yl)prop-2-yn-1-yl)piperazin-1-yl)isoxazol-5-yl)-3-methylbutanoyl)-4-hydroxy-N-((S)-1-(4-(4-methylthiazol-5-yl)phenyl)ethyl)pyrrolidine-2-carboxamide]",,,,> 30,
"Cc1ncsc1-c1ccc([C@H](C)NC(=O)[C@@H]2C[C@@H](O)CN2C(=O)[C@@H](c2cc(N3CCC(CN4CCC(O[C@H]5C[C@H](CN6CCC(C(C)n7cc(-c8cc(-c9ccccc9O)nnc8N)cn7)CC6)C5)CC4)CC3)no2)C(C)C)cc1 (stereo partly drawn) [compound 642, (2S,4R)-1-((2R)-2-(3-(4-((4-((1r,3r)-3-((4-(1-(4-(3-amino-6-(2-hydroxyphenyl)pyridazin-4-yl)-1H-pyrazol-1-yl)ethyl)piperidin-1-yl)methyl)cyclobutoxy)piperidin-1-yl)methyl)piperidin-1-yl)isoxazol-5-yl)-3-methylbutanoyl)-4-hydroxy-N-((S)-1-(4-(4-methylthiazol-5-yl)phenyl)ethyl)pyrrolidine-2-carboxamide]",< 2.5,,> 75,,
"Cc1ncsc1-c1ccc([C@H](C)NC(=O)[C@@H]2C[C@@H](O)CN2C(=O)[C@H](c2cc(OCCCC#Cc3ccc(O[C@H]4C[C@H](Oc5cc(N6C7CCC6CN(c6cc(-c8ccccc8O)nnc6N)C7)ccn5)C4)cn3)no2)C(C)C)cc1 [compound 249, (2S,4R)-1-((2S)-2-(3-((5-(5-((1r,3r)-3-((4-(3-(3-amino-6-(2-hydroxyphenyl)pyridazin-4-yl)-3,8-diazabicyclo[3.2.1]octan-8-yl)pyridin-2-yl)oxy)cyclobutoxy)pyridin-2-yl)pent-4-yn-1-yl)oxy)isoxazol-5-yl)-3-methylbutanoyl)-4-hydroxy-N-((S)-1-(4-(4-methylthiazol-5-yl)phenyl)ethyl)pyrrolidine-2-carboxamide]",> 30,> 75,,,
"COC[C@H](NC(=O)[C@@H]1C[C@@H](O)CN1C(=O)[C@@H](c1cc(N2CCC(CN3CCC(O[C@H]4C[C@H](Oc5cc(N6C7CCC6CN(c6cc(-c8ccccc8O)nnc6N)C7)ccn5)C4)CC3)CC2)no1)C(C)C)c1ccc(-c2scnc2C)cc1 [compound 668, (2S,4R)-1-((2R)-2-(3-(4-((4-((1r,3r)-3-((4-(3-(3-amino-6-(2-hydroxyphenyl)pyridazin-4-yl)-3,8-diazabicyclo[3.2.1]octan-8-yl)pyridin-2-yl)oxy)cyclobutoxy)piperidin-1-yl)methyl)piperidin-1-yl)isoxazol-5-yl)-3-methylbutanoyl)-4-hydroxy-N-((R)-2-methoxy-1-(4-(4-methylthiazol-5-yl)phenyl)ethyl)pyrrolidine-2-carboxamide]",< 2.5,,> 75,,
"Cc1ncsc1-c1ccc([C@H](C)NC(=O)[C@@H]2C[C@@H](O)CN2C(=O)[C@@H](c2cc(OCCN3CCC(O[C@H]4C[C@H](Oc5cc(N6C7CCC6CN(c6cc(-c8ccccc8O)nnc6N)C7)ccn5)C4)CC3)no2)C(C)C)c(F)c1 [compound 240, (2S,4R)-1-((2R)-2-(3-(2-(4-((1r,3R)-3-((4-(3-(3-amino-6-(2-hydroxyphenyl)pyridazin-4-yl)-3,8-diazabicyclo[3.2.1]octan-8-yl)pyridin-2-yl)oxy)cyclobutoxy)piperidin-1-yl)ethoxy)isoxazol-5-yl)-3-methylbutanoyl)-N-((S)-1-(2-fluoro-4-(4-methylthiazol-5-yl)phenyl)ethyl)-4-hydroxypyrrolidine-2-carboxamide]",< 2.5,> 75,,,
